Several values for one entry are separate records, joined by “and”; a condition that tells them apart may be missing. Equal entries are not always repeated. Entries after “also recorded” stand apart in the source; their conditions may differ. Where two headings read alike, the source gives them in different places.
Experiments:
A. thaliana PIN8 = molecular target: T1, A. thaliana PIN8 (Arabidopsis thaliana, UniProt Q9LFP6); test: SSM electrophysiology, peak current response on PIN8 proteoliposomes; type: biochemical; details: for Peak current: individual sensors
T1 construct: made in house
T1 sequence (Q9LFP6 1-367): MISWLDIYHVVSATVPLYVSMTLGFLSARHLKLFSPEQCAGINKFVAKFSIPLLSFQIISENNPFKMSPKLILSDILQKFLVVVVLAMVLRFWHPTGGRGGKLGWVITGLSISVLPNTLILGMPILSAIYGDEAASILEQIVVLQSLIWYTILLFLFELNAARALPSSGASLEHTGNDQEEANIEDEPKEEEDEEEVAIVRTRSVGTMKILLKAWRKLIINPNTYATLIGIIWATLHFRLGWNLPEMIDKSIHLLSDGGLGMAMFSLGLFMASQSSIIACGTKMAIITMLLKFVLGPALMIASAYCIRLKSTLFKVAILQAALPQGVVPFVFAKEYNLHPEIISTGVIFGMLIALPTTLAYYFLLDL
Experimental: (§1) SSM, using a SURFE2R N1 from Nanion Technologies, was conducted as described. In brief, soy polar lipid mix (38% phosphatidyl choline, 30% phosphatidyl ethanolamine, 18% phosphatidyl inositol, 7% phosphatidic acid and 7% other soy lipids) and 1-palmitoyl-2-oleoyl-sn-glycero-3-phosphocholin were purchased from Avanti. Liposomes were prepared in Ringer solution without Ca^2+ (115 mM NaCl, 2.5 mM KCl, 1 mM NaHCO3, 10 mM HEPES pH7.4, 1 mM MgCl2) and homogenized using a Lipsofast (Avestin) with a […]. Triton X-100 was added to the liposomes to a final concentration of 1% (v/v). Protein was added to liposomes to a calculated lipid-to-protein ratio (LPR) of 10 unless stated otherwise. The detergent was removed using 400 mg ml^−1 Bio Beads (BioRad) overnight at 4 °C in a rotary shaker. Proteoliposomes were frozen in liquid nitrogen and kept at −80 °C until use. Proteoliposomes were diluted 1:5 in Ringer solution without Ca^2+, sonicated five times and then applied to the sensors by centrifugation (30 min, 3,000 g, 4 °C). Non-activating buffer was Ringer solution without Ca^2+ as described unless specified otherwise, and activating buffer contained the substrate of interest. In most instances we used a single-solution exchange experiment. In this case proteoliposomes, immobilized on the supported membrane, are kept in non-activating buffer as specified. At the beginning of the experiment the non-activating buffer is replaced with fresh identical non-activating buffer, and after 1 s, activating buffer (same buffer containing substrate) is added. After another second, the buffer is replaced with non-activating buffer again. Current response is recorded throughout the entire 3 s. For competition or inhibition, the respective compound was present in non-activating and activating solutions. Each experiment was performed on at least two individual sensors. On each sensor each measurement consists of three technical replicates where the mean is calculated. KD values were determined as described previously. Briefly, the binding current induced by 100 µM NPA was recorded in the presence of different concentrations of the substrate under investigation ranging between 0 µM and 1,000 µM present in the activating solution and the non-activating solution (Extended Data Fig. 5b). […] The maximum peak current was then plotted as a function of the concentration of the substrate under investigation and plotted against the degree of inhibition and fitted with a one-site binding model using GraphPad Prism V10.4.1 The half maximal concentration corresponds to the KD of the substrate under investigation.

[1] = molecular target: T2, wild-type PIN8 proteoliposomes (Arabidopsis thaliana, UniProt Q9LFP6); test: SSM electrophysiology, peak width (FWHM) of current response at LPR10 and LPR50; type: biochemical; details: LPR10 versus LPR50
T2 construct: made in house
T2 sequence (Q9LFP6 1-367): T1 sequence (Q9LFP6 1-367)
Experimental: as §1

PIN8 = molecular target: T3, PIN8 (Arabidopsis thaliana, UniProt Q9LFP6); test: SSM electrophysiology, KD by inhibition of the NPA binding current
T3 construct: made in house
T3 sequence (Q9LFP6 1-367): T1 sequence (Q9LFP6 1-367)
Experimental: as §1

PIN8 I51Y = molecular target: T4, PIN8 I51Y (Arabidopsis thaliana, UniProt Q9LFP6, I51Y); type: biochemical; details: Michaelis–Menten fit
T4 construct: made in house
Experimental: as §1
(§2) The protocol for expression and purification of AtPIN8 protein (Uniprot: Q9LFP6) in lauryl maltose neopentyl glycol was described previously. All point mutants were generated using Q5 Site-Directed mutagenesis kit (New England Biolabs). The C-flat Holey Carbon grids (CF-1.2/1.3, Cu-300 mesh) were glow-discharged for 45 s at 15 mA in a GloQube Plus (Quorum). […] After 1 h of incubation on ice, the sample was centrifuged at 16,000 g for 15 min before blotting to remove precipitation. A drop of 4 µl of each sample was applied to the glow-discharged grids, blotted with a Vitrobot Mark IV (ThermoFisher Scientific) using the following settings (temperature 4 °C, 100% humidity, blot time of 4 s, blot force −1) and vitrified in liquid ethane.

PIN8 S266A = molecular target: T5, PIN8 S266A (Arabidopsis thaliana, UniProt Q9LFP6, S266A); type: biochemical; details: PIN8 S266A, Michaelis–Menten fit
T5 construct: made in house
Experimental: as §1, §2

PIN8 S55A = molecular target: T6, PIN8 S55A (Arabidopsis thaliana, UniProt Q9LFP6, S55A); type: biochemical; details: for Peak current: S55A, individual sensors
T6 construct: made in house
Experimental: as §1, §2

PIN8 S146A = molecular target: T7, PIN8 S146A (Arabidopsis thaliana, UniProt Q9LFP6, S146A); type: biochemical; details: for Peak current: S146A, individual sensors
T7 construct: made in house
Experimental: as §1, §2

PIN8 N117A = molecular target: T8, PIN8 N117A (Arabidopsis thaliana, UniProt Q9LFP6, N117A); test: SSM electrophysiology peak current, PIN8 N117A proteoliposomes; type: biochemical; details: for Relative Peak Current of WT (%): Substrate 2,4-D, replicates
T8 construct: made in house
Experimental: as §1, §2

[2] = WT PIN8 proteoliposomes, Michaelis–Menten fit
[3] = read-out: EC50 of peak current response

T6 sequence (Q9LFP6 whole entry S55A): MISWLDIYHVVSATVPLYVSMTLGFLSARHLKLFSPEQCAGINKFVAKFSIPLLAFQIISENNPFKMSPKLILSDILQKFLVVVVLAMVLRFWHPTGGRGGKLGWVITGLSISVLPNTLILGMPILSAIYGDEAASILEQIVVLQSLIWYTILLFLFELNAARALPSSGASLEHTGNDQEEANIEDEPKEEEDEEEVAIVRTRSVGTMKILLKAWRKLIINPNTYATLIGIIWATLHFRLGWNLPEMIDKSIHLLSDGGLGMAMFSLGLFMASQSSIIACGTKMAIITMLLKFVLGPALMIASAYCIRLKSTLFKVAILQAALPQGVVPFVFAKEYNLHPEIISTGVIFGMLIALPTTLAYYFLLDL
T8 sequence (Q9LFP6 whole entry N117A): as the sequence (Q9LFP6 whole entry S55A) above, with A55S, N117A counted along it
T7 sequence (Q9LFP6 whole entry S146A): as the sequence (Q9LFP6 whole entry S55A) above, with A55S, S146A counted along it
T5 sequence (Q9LFP6 whole entry S266A): as the sequence (Q9LFP6 whole entry S55A) above, with A55S, S266A counted along it
T4 sequence (Q9LFP6 whole entry I51Y): as the sequence (Q9LFP6 whole entry S55A) above, with I51Y, A55S counted along it

**Q.** O=C(O)COc1ccc(Cl)cc1Cl [2,4-D, 2,4-dichlorophenoxyacetic acid] was tested. Which Peak current (A. thaliana PIN8; 100 μM 2,4-D, absence of NPA) did it give?
**A.** The Peak current was 3.226 nA and 5.875 nA.

**Q.** What about the Peak current (A. thaliana PIN8; 100 μM 2,4-D, presence of 20 µM NPA) of the same molecule?
**A.** Its Peak current is 0.9715 nA and 1.501 nA and 1.34 nA.

**Q.** And the EC50 (A. thaliana PIN8; [2])?
**A.** Its EC50 is 180 µM and 179 µM.

**Q.** What about the “maximal current Imax” value (A. thaliana PIN8; [2]) of the same molecule?
**A.** Its value is 17 ± 2 nA.

**Q.** What about the Peak current (A. thaliana PIN8; WT, 5 µM substrate) of the same molecule?
**A.** Its Peak current is 0.6835 nA and 0.6464 nA and 0.7573 nA.

**Q.** And the Peak current (A. thaliana PIN8; WT, 20 µM substrate)?
**A.** The Peak current was 2.106 nA and 1.934 nA and 2.262 nA.

**Q.** And the Peak current (A. thaliana PIN8; WT, 50 µM substrate)?
**A.** Its Peak current is 4.032 nA and 3.705 nA.

**Q.** And the Peak current (A. thaliana PIN8; WT, 2000 µM substrate)?
**A.** The Peak current was 15.4919 nA and 14.1952 nA and 17.3107 nA.

**Q.** And the “peak width of SSM-based current response as a function of lipid-to-protein ratio (LPR)” value [1]?
**A.** Its value is “vary with lipid-to-protein ratio (LPR)”.

**Q.** And the Kd (PIN8; Peak current, sheet F2A (Fig. 2a, KD of substrate binding), individual sensors)?
**A.** Its Kd is 64.4 µM and 50.6 µM and 62.3 µM.

**Q.** And the Kd (PIN8; inhibition of peak current elicited by 100 µM NPA, read-out: KD of substrate binding by PIN8)?
**A.** The Kd was 59 ± 7 µM.

**Q.** And the inhibition at 20 µM (PIN8; read-out: Rel. Inhibition of NPA peak currents, 20 µM substrate, 100 µM NPA, individual sensors)?
**A.** Its inhibition at 20 µM is 22.5%.

**Q.** And the inhibition at 50 µM (PIN8; read-out: Rel. Inhibition of NPA peak currents, 50 µM substrate, 100 µM NPA, individual sensors)?
**A.** Its inhibition at 50 µM is 46.2%.

**Q.** What about the inhibition at 100 µM (PIN8; read-out: Rel. Inhibition of NPA peak currents, 100 µM substrate, 100 µM NPA, individual sensors) of the same molecule?
**A.** Its inhibition at 100 µM is 65.6%.

**Q.** What about the inhibition at 250 µM (PIN8; read-out: Rel. Inhibition of NPA peak currents, 250 µM substrate, 100 µM NPA, individual sensors) of the same molecule?
**A.** The inhibition at 250 µM was 83.2%.

**Q.** And the inhibition at 500 µM (PIN8; read-out: Rel. Inhibition of NPA peak currents, 500 µM substrate, 100 µM NPA, individual sensors)?
**A.** Its inhibition at 500 µM is 91.1%.

**Q.** And the inhibition at 1000 µM (PIN8; read-out: Rel. Inhibition of NPA peak currents, 1000 µM substrate, 100 µM NPA, individual sensors)?
**A.** The inhibition at 1000 µM was 95.2%.

**Q.** What about the Imax (PIN8 I51Y) of the same molecule?
**A.** Its Imax is 3 ± 0.8 nA.

**Q.** And the EC50 (PIN8 I51Y; [3])?
**A.** Its EC50 is 641 ± 77 µM.

**Q.** And the Imax (PIN8 S266A)?
**A.** Its Imax is 12 ± 0.7 nA.

**Q.** And the EC50 (PIN8 S266A; [3])?
**A.** The EC50 was 774 ± 70 µM.

**Q.** What about the Imax (PIN8 S55A; PIN8 S55A, Michaelis–Menten fit) of the same molecule?
**A.** Its Imax is 6 ± 0.6 nA.

**Q.** And the EC50 (PIN8 S55A; PIN8 S55A, Michaelis–Menten fit, read-out: EC50 of peak current response)?
**A.** Its EC50 is 95 ± 36 µM.

**Q.** What about the Peak current (PIN8 S55A; 5 µM substrate) of the same molecule?
**A.** The Peak current was 0.5771 nA and 0.4543 nA and 0.3145 nA and 0.4609 nA.

**Q.** What about the Peak current (PIN8 S55A; 20 µM substrate) of the same molecule?
**A.** Its Peak current is 1.612 nA and 1.263 nA and 1.114 nA and 1.2922 nA.

**Q.** And the Peak current (PIN8 S55A; 50 µM substrate)?
**A.** Its Peak current is 2.6274 nA and 2.193 nA and 2.012 nA and 0.000174 nA.

**Q.** And the Peak current (PIN8 S55A; 100 µM substrate)?
**A.** The Peak current was 3.62 nA and 3.055 nA and 2.8112 nA and 3.289 nA.

**Q.** What about the Peak current (PIN8 S55A; 500 µM substrate) of the same molecule?
**A.** The Peak current was 5.907 nA and 5.083 nA and 4.589 nA and 5.296 nA.

**Q.** And the Peak current (PIN8 S55A; 1000 µM substrate)?
**A.** Its Peak current is 6.235 nA and 5.542 nA and 4.855 nA and 5.533 nA.

**Q.** And the Peak current (PIN8 S55A; 2000 µM substrate)?
**A.** The Peak current was 6.017 nA and 5.654 nA and 4.774 nA and 5.542 nA.

**Q.** And the Imax (PIN8 S146A; PIN8 S146A, Michaelis–Menten fit)?
**A.** Its Imax is 8 ± 0.9 nA.

**Q.** And the EC50 (PIN8 S146A; PIN8 S146A, Michaelis–Menten fit, read-out: EC50 of peak current response)?
**A.** The EC50 was 164 ± 67 µM.

**Q.** What about the Peak current (PIN8 S146A; 5 µM substrate) of the same molecule?
**A.** Its Peak current is 0.446 nA and 0.486 nA and 0.471 nA and 0.573 nA.

**Q.** And the Peak current (PIN8 S146A; 20 µM substrate)?
**A.** The Peak current was 1.337 nA and 0.845 nA and 1.226 nA and 1.49 nA.

**Q.** What about the Peak current (PIN8 S146A; 50 µM substrate) of the same molecule?
**A.** Its Peak current is 2.387 nA and 1.739 nA and 2.167 nA and 2.694 nA.

**Q.** What about the Peak current (PIN8 S146A; 100 µM substrate) of the same molecule?
**A.** The Peak current was 3.422 nA and 2.581 nA and 3.052 nA and 3.828 nA.

**Q.** And the Peak current (PIN8 S146A; 500 µM substrate)?
**A.** Its Peak current is 6.088 nA and 4.842 nA and 5.334 nA and 6.787 nA.

**Q.** And the Peak current (PIN8 S146A; 1000 µM substrate)?
**A.** The Peak current was 7.15 nA and 6.069 nA and 6.109 nA and 7.864 nA.

**Q.** And the Peak current (PIN8 S146A; 2000 µM substrate)?
**A.** Its Peak current is 8.119 nA and 7.96 nA and 6.88 nA and 9.033 nA.

**Q.** And the “current response / function of PIN8 N117A” value (PIN8 N117A; N117A mutation)?
**A.** The value was “abolishes the current response; also recorded: abolishes function”.

**Q.** What about the “Relative Peak Current of WT (%)” value (PIN8 N117A; 2mM) of the same molecule?
**A.** The value was 22.8804% and 23.9685% and 24.9449% and 20.0988%.

**Q.** And the “Relative Peak Current of WT (%)” value (PIN8 N117A)?
**A.** Its value is 9.311% and 12.1121% and 13.3294% and 14.1031%.

Source: publication PMC12095047, “Transport of phenoxyacetic acid herbicides by PIN-FORMED auxin transporters” (Nature Plants, 2025)
